Measurements reported in ChEMBL document CHEMBL1201862, “PubChem BioAssay data set” (2004).
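Exposure lasted 48 hours, with cells grown in 96-well plates and compounds tested at five concentrations. Abbreviation: GI50, concentration required for 50% inhibition of growth.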 The source made the active and inactive calls. Cut-off read from the data, not from the text of the source: active = GI50 up to about 1.1 µM and inactive = higher.

Tests used:
Experiment in all cases: DTP human tumour cell line panel, 48 h
SF-268 = test system: SF-268
OVCAR-5 = test system: OVCAR-5
SR = test system: SR
SNB-19 = test system: SNB-19
CCRF-CEM = test system: CCRF-CEM
OVCAR-3 = test system: OVCAR-3
UACC-62 = test system: UACC-62
KM12 = test system: KM12
LOX IMVI = test system: LOX IMVI
HL-60 = test system: HL-60
SK-OV-3 = test system: SK-OV-3
SK-MEL-5 = test system: SK-MEL-5
IGROV-1 = test system: IGROV-1
SNB-75 = test system: SNB-75
HOP-92 = test system: HOP-92

Measured: GI50

C1CSC(=[N+]2CC[N+](=C3SCCS3)CC2)S1
inactive: SF-268 > 100 µM | OVCAR-5 > 100 µM | SR 83.8 µM | SNB-19 > 100 µM | CCRF-CEM 36.6 µM | OVCAR-3 > 100 µM | UACC-62 > 100 µM | KM12 > 100 µM | LOX IMVI 39.2 µM | HL-60 > 100 µM | SK-OV-3 > 100 µM | SK-MEL-5 > 100 µM | IGROV-1 > 100 µM | SNB-75 > 100 µM | HOP-92 45.4 µM

COc1ccc2c3c([nH]c(=O)c2c1C(=O)O)-c1ccccc1CC3
inactive: SF-268 > 100 µM | OVCAR-5 > 100 µM | SR > 100 µM | SNB-19 > 100 µM | CCRF-CEM > 100 µM | OVCAR-3 > 100 µM | KM12 > 100 µM | LOX IMVI > 100 µM | HL-60 > 100 µM | SK-OV-3 > 100 µM | SK-MEL-5 > 100 µM | IGROV-1 > 100 µM | SNB-75 > 100 µM | HOP-92 > 100 µM

Cc1ccc(C)c(N2C(=O)C(=O)C(c3nc4ccccc4s3)/C(=N/N)C2=O)c1 (configuration not stated)
inactive: SF-268 > 100 µM | OVCAR-5 > 100 µM | SR > 100 µM | SNB-19 > 100 µM | CCRF-CEM > 100 µM | OVCAR-3 > 100 µM | UACC-62 > 100 µM | KM12 > 100 µM | LOX IMVI > 100 µM | HL-60 > 100 µM | SK-OV-3 > 100 µM | SK-MEL-5 > 100 µM | IGROV-1 > 100 µM | SNB-75 > 100 µM | HOP-92 > 100 µM

CC1=Nc2c(O)nc(S)nc2NC(c2ccc(Cl)c(Cl)c2)C1 (configuration not stated)
inactive: SF-268 32.2 µM | OVCAR-5 > 100 µM | SR > 100 µM | SNB-19 > 45 µM | CCRF-CEM > 100 µM | OVCAR-3 17.5 µM | UACC-62 29.8 µM | KM12 17.7 µM | LOX IMVI 20 µM | HL-60 > 100 µM | SK-OV-3 32.1 µM | SK-MEL-5 23.6 µM | IGROV-1 20.1 µM | SNB-75 80.9 µM | HOP-92 > 93.1 µM

COc1ccccc1NC(=O)C1=C(C)NC(C)=C(C(=O)Nc2ccccc2OC)C1c1cccc2c1OCO2
inactive: SF-268 > 100 µM | OVCAR-5 > 100 µM | SR 30.5 µM | SNB-19 91.8 µM | CCRF-CEM 34.6 µM | OVCAR-3 > 100 µM | UACC-62 > 100 µM | KM12 60.7 µM | LOX IMVI > 100 µM | HL-60 41.2 µM | SK-OV-3 > 100 µM | SK-MEL-5 46 µM | IGROV-1 > 100 µM | SNB-75 14.1 µM | HOP-92 > 100 µM

Cc1c(OCCCOc2ccc3c(=O)cc(-c4ccccc4)oc3c2C)ccc2c(=O)cc(-c3ccccc3)oc12
inactive: SF-268 > 100 µM | OVCAR-5 > 100 µM | SR 44.2 µM | SNB-19 > 100 µM | CCRF-CEM 68.7 µM | OVCAR-3 > 100 µM | UACC-62 > 100 µM | KM12 > 100 µM | LOX IMVI > 100 µM | HL-60 41.4 µM | SK-OV-3 > 100 µM | SK-MEL-5 > 100 µM | IGROV-1 > 100 µM | HOP-92 > 100 µM

CC1=CC2C(C=C1)S(=O)(=O)N1CC21c1ccccc1 (configuration not stated)
inactive: SF-268 > 100 µM | OVCAR-5 > 100 µM | SR 90.8 µM | SNB-19 > 100 µM | CCRF-CEM > 100 µM | OVCAR-3 > 100 µM | UACC-62 64.6 µM | KM12 > 100 µM | LOX IMVI 33.5 µM | HL-60 > 100 µM | SK-OV-3 > 100 µM | SK-MEL-5 > 100 µM | IGROV-1 > 100 µM | SNB-75 > 100 µM | HOP-92 15.1 µM

Cn1cc2ccccc2c1-c1nc(F)nc(F)n1
inactive: SF-268 > 100 µM | OVCAR-5 > 100 µM | SR 41.6 µM | SNB-19 > 100 µM | CCRF-CEM 97.9 µM | OVCAR-3 > 100 µM | KM12 63.5 µM | LOX IMVI > 100 µM | HL-60 45.5 µM | SK-OV-3 > 100 µM | SK-MEL-5 > 100 µM | IGROV-1 > 100 µM | SNB-75 92.3 µM | HOP-92 > 100 µM

O=C(O)Cc1ccc2c(c1O)C(=O)c1c(ccc(CC(=O)O)c1O)C2=O
inactive: SF-268 > 100 µM | OVCAR-5 > 100 µM | SR > 100 µM | SNB-19 > 100 µM | CCRF-CEM > 100 µM | OVCAR-3 > 100 µM | KM12 > 100 µM | LOX IMVI > 100 µM | HL-60 > 100 µM | SK-OV-3 > 100 µM | SK-MEL-5 > 100 µM | IGROV-1 > 100 µM | SNB-75 > 100 µM | HOP-92 > 100 µM

Cc1ccc(S(=O)(=O)O/N=C2\CCC\C2=C/c2ccccc2)cc1
inactive: SF-268 8.87 µM | OVCAR-5 23 µM | SR 16.4 µM | SNB-19 30.5 µM | CCRF-CEM 58.6 µM | OVCAR-3 18.5 µM | UACC-62 8.45 µM | KM12 17.6 µM | LOX IMVI 25.9 µM | HL-60 6.82 µM | SK-OV-3 63.4 µM | SK-MEL-5 14.8 µM | IGROV-1 26.2 µM | SNB-75 20.2 µM | HOP-92 15.7 µM

CC(CC(=O)Nc1ccc(NC(=O)CC(C)/N=N\C(N)=S)cc1)/N=N\C(N)=S (configuration not stated)
inactive: SF-268 > 100 µM | OVCAR-5 > 100 µM | SR 48.9 µM | SNB-19 > 100 µM | CCRF-CEM > 100 µM | OVCAR-3 > 100 µM | UACC-62 > 100 µM | KM12 > 100 µM | LOX IMVI 57.5 µM | HL-60 > 100 µM | SK-MEL-5 > 100 µM | IGROV-1 > 100 µM | SNB-75 > 100 µM | HOP-92 > 100 µM

Cc1ccccc1C(=O)c1cc(O)ccc1O
inactive: SF-268 > 100 µM | OVCAR-5 > 100 µM | SR 78 µM | SNB-19 > 100 µM | CCRF-CEM > 100 µM | OVCAR-3 > 100 µM | UACC-62 65 µM | KM12 43 µM | HL-60 31.8 µM | SK-OV-3 > 100 µM | SK-MEL-5 > 100 µM | IGROV-1 99.5 µM | SNB-75 76.2 µM | HOP-92 > 100 µM

Nc1c(Br)c(=O)[nH]c(=O)n1COCCO
inactive: SF-268 > 100 µM | OVCAR-5 > 100 µM | SR > 100 µM | SNB-19 > 100 µM | CCRF-CEM > 100 µM | OVCAR-3 > 100 µM | UACC-62 > 100 µM | KM12 > 100 µM | LOX IMVI > 100 µM | HL-60 > 100 µM | SK-MEL-5 > 100 µM | IGROV-1 > 100 µM | SNB-75 > 100 µM | HOP-92 > 100 µM

O=C(C#Cc1ccccc1)N1c2ccccc2CC1c1c[nH]c2ccccc12 (configuration not stated)
inactive: OVCAR-5 24.8 µM | SR 12.3 µM | SNB-19 30.3 µM | CCRF-CEM 4.63 µM | OVCAR-3 14.6 µM | UACC-62 7.82 µM | KM12 15.6 µM | LOX IMVI 6.73 µM | HL-60 14.7 µM | SK-OV-3 20.4 µM | SK-MEL-5 14.4 µM | IGROV-1 3.73 µM | SNB-75 11.7 µM | HOP-92 15.3 µM
